BigSolDB 2.1

CC[C@H](C)[C@H]1O[C@]2(CC[C@@H]1C)C[C@@H]1C[C@@H](C/C=C(\C)[C@@H](O[C@H]3C[C@H](OC)[C@@H](O[C@H]4C[C@H](OC)[C@@H](O)[C@H](C)O4)[C@H](C)O3)[C@@H](C)/C=C/C=C3\CO[C@@H]4[C@H](O)C(C)=C[C@@H](C(=O)O1)[C@]34O)O2
solubility (mole fraction)
Details	293.2 K	298.2 K	303.2 K	308.2 K	313.2 K
in isopropanol	0.0675	0.0823	0.0915	0.0967	0.106
in n-propanol	0.089	0.105	0.115	0.122	0.136
in water	5.1e-06	5.6e-06	6.1e-06	6.5e-06	6.9e-06
